Tests used:
[1] = tested on: Mycobacterium smegmatis ATCC 607; experiment: Antimicrobial activity against Mycobacterium smegmatis ATCC 607 (agar plate-cylinder); type: cell-based; conditions: standard bleomycin A2 (copper-free) assumed 1,000 mcg potency/mg
Procedure: (§1) 2. ANT[…] MYC[…] ATCC 607 AND BACILLUS SUBTILIS
(§2) The antimicrobial activity was tested against the captioned test organisms by the method of agar plate-cylinder. The activity was recorded on the assumption that the activity of standard sample of bleomycin A2 (copper-free form) is 1,000 mcg poteney/mg.

Bacillus subtilis = experiment: Antimicrobial activity against Bacillus subtilis (agar plate-cylinder); type: cell-based; conditions: standard bleomycin A2 (copper-free) assumed 1,000 mcg potency/mg
Procedure: as §1, §2

HeLa S3 cells = experiment: Growth inhibitory activity against cultured HeLa S3 cells; type: cell-based; conditions: 3 days
Procedure: 3. GROWTH INHIBITORY ACTIVITY AGAINST CULTURED HELA S3 CELLS
HeLa S3 cells were inoculated into a medium (MEM with 10% bovine serum) placed in a plastic petri dish. Two days thereafter, a bleomycin was added to the dish. After 3 days of breeding, the number of cells were counted. The percentage growth inhibition was calculated using the following equation:
Percentage inhibition (%)=100×(B-A)/(B-C) where A is the final number of cells after 3 days from the addition of test sample, B is the final number of cells in the control without addition of the test smaple, and C is the number of cells at the time of addition of the test sample.

[2] = CDF1/SLC male mice, s.c. once a day for 10 days, Behrens-Karber, daily dose
Procedure: From the mortality during the administration period, LD50 (daily dose) was determined by the method of Behrens-Karber.

pulmonary fibrosis = experiment: Pulmonary toxicity (pulmonary fibrosis) in mice; conditions: for Incidence: Number of mice with pulmonary fibrosis (%) / Incidence: Number of mice with pulmonary fibrosis / Grade: Total score of pulmonary fibrosis/total number of samples / Grade: Total score of pulmonary fibrosis/total number of samples (%): ICR mice, 5 mg/kg i.p. once a day for 10 days; for Incidence: Number of mice with pulmonary fibrosis (%) / Incidence: Number of mice with pulmonary fibrosis: 5 weeks observation; for Incidence: Number of mice with pulmonary fibrosis: mice with fibrosis/total; for Grade: Total score of pulmonary fibrosis/total number of samples / Grade: Total score of pulmonary fibrosis/total number of samples (%): points 0, 1, 2, 4, 6; for Ratio (by comparison with "Bleomycin Complex"): versus Bleomycin Complex

Molecule | Antimicrobial potency of Cu-free compound against Mycobacterium smegmatis ATCC 607 [1] | Antimicrobial potency of Cu-free compound against Bacillus subtilis (Bacillus subtilis) | 50% Growth inhibitory concentration of Cu-free compd. against cultured HeLaS3 cells (ID50) (HeLa S3 cells) | LD50 during administration period of 10 consecutive days [2] | Incidence: Number of mice with pulmonary fibrosis (%) (pulmonary fibrosis) | Incidence: Number of mice with pulmonary fibrosis (pulmonary fibrosis) | Grade: Total score of pulmonary fibrosis/total number of samples (pulmonary fibrosis) | Grade: Total score of pulmonary fibrosis/total number of samples (%) (pulmonary fibrosis) | Ratio (by comparison with "Bleomycin Complex") (pulmonary fibrosis)
3-((S)-1'-phenylethylamino)propylamino-(amido)N--[1,6-dimethyl-heptyl]-BLM [Compound 32] | 39956 mcg potency/mg | 298 mcg potency/mg | 0.83 µg/mL |  |  |  |  |  | 
4-Guanidinobutylamino-(amido)N--[1',6'-dimethylheptyl]-BLM [Compound 8] | 24880 mcg potency/mg | 950 mcg potency/mg | 0.62 µg/mL |  |  |  |  |  | 
Cc1c(N)nc(C(CC(N)=O)NCC(N)C(=O)NCCCNC(C)c2ccccc2)nc1C(=O)NC(C(=O)NC(C)C(O)C(C)C(=O)NC(C(=O)NCCc1nc(-c2nc(C(=O)NCCC[N+](C)(C)CCCN(Cc3ccccc3)Cc3ccccc3)cs2)cs1)C(C)O)C(OC1OC(CO)C(O)C(O)C1OC1OC(CO)C(O)C(OC(N)=O)C1O)c1cnc[nH]1 [Compound 52, 3-{N,N--dimethyl-N--[dibenzylamino)propyl]amino}-propylamino-(amido)N--[3-((S)-1'-phenyl)aminopropyl]-BLM] | 21371 mcg potency/mg | 2372 mcg potency/mg |  | 13.9 mg/kg/day | 0% | 0/9 | 0/27 | 0% | 0
CCCCCCCCNC(=O)C(N)CNC(CC(N)=O)c1nc(N)c(C)c(C(=O)NC(C(=O)NC(C)C(O)C(C)C(=O)NC(C(=O)NCCc2nc(-c3nc(C(=O)NCCC[N+](C)(C)CCCN(Cc4ccccc4)Cc4ccccc4)cs3)cs2)C(C)O)C(OC2OC(CO)C(O)C(O)C2OC2OC(CO)C(O)C(OC(N)=O)C2O)c2cnc[nH]2)n1 (centres unmarked) [Compound 53, 3-{N,N--dimethyl-N--[3-(dibenzylamino)propyl]amino}-propylamino-(amido)N--[n-octyl]-BLM] | 40703 mcg potency/mg | 595 mcg potency/mg |  | 15.0 mg/kg/day | 0% | 0/9 | 0/27 | 0% | 0
CCCCN(CCCC)CCCNC(=O)C(N)CNC(CC(N)=O)c1nc(N)c(C)c(C(=O)NC(C(=O)NC(C)C(O)C(C)C(=O)NC(C(=O)NCCc2nc(-c3nc(C(=O)NCCC[N+](C)(C)CCCN(Cc4ccccc4)Cc4ccccc4)cs3)cs2)C(C)O)C(OC2OC(CO)C(O)C(O)C2OC2OC(CO)C(O)C(OC(N)=O)C2O)c2cnc[nH]2)n1 (centres unmarked) [Compound 54] | 32633 mcg potency/mg | 2663 mcg potency/mg |  |  | 0% | 0/9 | 0/27 | 0% | 0
CC[N+](CC)(CCCNC(=O)c1csc(-c2csc(CCNC(=O)C(NC(=O)C(C)C(O)C(C)NC(=O)C(NC(=O)c3nc(C(CC(N)=O)NCC(N)C(=O)NCCCNC(C)c4ccccc4)nc(N)c3C)C(OC3OC(CO)C(O)C(O)C3OC3OC(CO)C(O)C(OC(N)=O)C3O)c3cnc[nH]3)C(C)O)n2)n1)CCCN(Cc1ccccc1)Cc1ccccc1 [Compound 55, 3-{N,N--diethyl-N--[3-(dibenzylamino)propyl]amino}-propyl-amino-(amido)N--[3-((S)-1'-phenylethyl)aminopropyl]-BLM] | 20840 mcg potency/mg | 2150 mcg potency/mg |  |  | 0% | 0/9 | 0/27 | 0% | 0
CCCCCCCCNC(=O)C(N)CNC(CC(N)=O)c1nc(N)c(C)c(C(=O)NC(C(=O)NC(C)C(O)C(C)C(=O)NC(C(=O)NCCc2nc(-c3nc(C(=O)NCCC[N+](CC)(CC)CCCN(Cc4ccccc4)Cc4ccccc4)cs3)cs2)C(C)O)C(OC2OC(CO)C(O)C(O)C2OC2OC(CO)C(O)C(OC(N)=O)C2O)c2cnc[nH]2)n1 (centres unmarked) [Compound 56, 3-{N,N--diethyl-N--[3-(dibenzylamino)propyl]amino}propylamino-(amido)N--[octyl]-BLM] | 41380 mcg potency/mg | 520 mcg potency/mg |  |  | 0% | 0/9 | 0/27 | 0% | 0
CCCCN(CCCC)CCCNC(=O)C(N)CNC(CC(N)=O)c1nc(N)c(C)c(C(=O)NC(C(=O)NC(C)C(O)C(C)C(=O)NC(C(=O)NCCc2nc(-c3nc(C(=O)NCCCN(C)CCCNCC4CCCCCCC4)cs3)cs2)C(C)O)C(OC2OC(CO)C(O)C(O)C2OC2OC(CO)C(O)C(OC(N)=O)C2O)c2cnc[nH]2)n1 (centres unmarked) [Compound 58, 3-[N--methyl-N--[3-(cyclooctylmethylamino)propyl]amino}-propylamino-(amido)N--[3-(di-n-butyamino)propyl]-BLM] | 62418 mcg potency/mg | 5518 mcg potency/mg |  |  | 0% | 0/9 | 0/27 | 0% | 0
CCCCCCCCNC(=O)C(N)CNC(CC(N)=O)c1nc(N)c(C)c(C(=O)NC(C(=O)NC(C)C(O)C(C)C(=O)NC(C(=O)NCCc2nc(-c3nc(C(=O)NCCCN(C)CCCNCC4CCCCCCC4)cs3)cs2)C(C)O)C(OC2OC(CO)C(O)C(O)C2OC2OC(CO)C(O)C(OC(N)=O)C2O)c2cnc[nH]2)n1 (centres unmarked) [Compound 59, 3-{N--methyl-N--[3-(cyclooctylmethylamino)propyl]amino}propyl-amino-(amido)N--[octyl]-BLM] | 65733 mcg potency/mg | 5473 mcg potency/mg |  |  | 0% | 0/9 | 0/27 | 0% | 0
Cc1c(N)nc(C(CC(N)=O)NCC(N)C(=O)NCCCNC(C)c2ccccc2)nc1C(=O)NC(C(=O)NC(C)C(O)C(C)C(=O)NC(C(=O)NCCc1nc(-c2nc(C(=O)NCCCN(C)CCCNCC3CCCCCCC3)cs2)cs1)C(C)O)C(OC1OC(CO)C(O)C(O)C1OC1OC(CO)C(O)C(OC(N)=O)C1O)c1cnc[nH]1 [Compound 60, 3-{N--methyl-N--[3-(cyclooctylmethyl)aminopropyl]amino}-propylamino-(amido)N--[3-((S)-1'-phenylethylamino)propyl]-BLM] | 54345 mcg potency/mg | 7273 mcg potency/mg |  |  | 0% | 0/9 | 0/27 | 0% | 0
CCCCCCCCNC(=O)C(N)CNC(CC(N)=O)c1nc(N)c(C)c(C(=O)NC(C(=O)NC(C)C(O)C(C)C(=O)NC(C(=O)NCCc2nc(-c3nc(C(=O)NCCCN(C)CCCNCc4ccc(C#N)cc4)cs3)cs2)C(C)O)C(OC2OC(CO)C(O)C(O)C2OC2OC(CO)C(O)C(OC(N)=O)C2O)c2cnc[nH]2)n1 (centres unmarked) [Compound 62, 3-{N--methyl-N--[3-(p-cyanobenzylamino)propyl]amino}propylamino-(amido)N--[octyl]-BLM] | 49270 mcg potency/mg | 381 mcg potency/mg |  |  | 0% | 0/9 | 0/27 | 0% | 0
